Experimental data reported in paper PMC4858680, “A platinum-based hybrid drug design approach to circumvent acquired resistance to molecular targeted tyrosine kinase inhibitors” (Scientific Reports, 2016).
Where two headings read alike, the source gives them in different places.

Assays:
FLT3(K663D) = molecular target: T1, FLT3(K663D) (Homo sapiens, UniProt P36888, K663Q)
T1 sequence (P36888 564-993 K663Q limits assumed): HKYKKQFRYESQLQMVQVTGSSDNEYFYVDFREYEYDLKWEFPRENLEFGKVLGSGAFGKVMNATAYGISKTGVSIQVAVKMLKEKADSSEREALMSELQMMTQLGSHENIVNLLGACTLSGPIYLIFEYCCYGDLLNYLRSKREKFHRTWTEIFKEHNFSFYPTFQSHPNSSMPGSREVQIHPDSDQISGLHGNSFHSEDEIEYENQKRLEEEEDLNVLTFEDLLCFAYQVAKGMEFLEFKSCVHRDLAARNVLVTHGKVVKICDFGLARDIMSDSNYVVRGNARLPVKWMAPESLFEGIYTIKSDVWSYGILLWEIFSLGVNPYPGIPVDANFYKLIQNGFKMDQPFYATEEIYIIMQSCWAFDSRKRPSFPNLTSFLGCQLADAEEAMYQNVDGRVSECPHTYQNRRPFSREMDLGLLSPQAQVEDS

EPHA1 = molecular target: T2, EPHA1 (Homo sapiens, UniProt P21709); details: 10 μM
T2 sequence (P21709 26-976): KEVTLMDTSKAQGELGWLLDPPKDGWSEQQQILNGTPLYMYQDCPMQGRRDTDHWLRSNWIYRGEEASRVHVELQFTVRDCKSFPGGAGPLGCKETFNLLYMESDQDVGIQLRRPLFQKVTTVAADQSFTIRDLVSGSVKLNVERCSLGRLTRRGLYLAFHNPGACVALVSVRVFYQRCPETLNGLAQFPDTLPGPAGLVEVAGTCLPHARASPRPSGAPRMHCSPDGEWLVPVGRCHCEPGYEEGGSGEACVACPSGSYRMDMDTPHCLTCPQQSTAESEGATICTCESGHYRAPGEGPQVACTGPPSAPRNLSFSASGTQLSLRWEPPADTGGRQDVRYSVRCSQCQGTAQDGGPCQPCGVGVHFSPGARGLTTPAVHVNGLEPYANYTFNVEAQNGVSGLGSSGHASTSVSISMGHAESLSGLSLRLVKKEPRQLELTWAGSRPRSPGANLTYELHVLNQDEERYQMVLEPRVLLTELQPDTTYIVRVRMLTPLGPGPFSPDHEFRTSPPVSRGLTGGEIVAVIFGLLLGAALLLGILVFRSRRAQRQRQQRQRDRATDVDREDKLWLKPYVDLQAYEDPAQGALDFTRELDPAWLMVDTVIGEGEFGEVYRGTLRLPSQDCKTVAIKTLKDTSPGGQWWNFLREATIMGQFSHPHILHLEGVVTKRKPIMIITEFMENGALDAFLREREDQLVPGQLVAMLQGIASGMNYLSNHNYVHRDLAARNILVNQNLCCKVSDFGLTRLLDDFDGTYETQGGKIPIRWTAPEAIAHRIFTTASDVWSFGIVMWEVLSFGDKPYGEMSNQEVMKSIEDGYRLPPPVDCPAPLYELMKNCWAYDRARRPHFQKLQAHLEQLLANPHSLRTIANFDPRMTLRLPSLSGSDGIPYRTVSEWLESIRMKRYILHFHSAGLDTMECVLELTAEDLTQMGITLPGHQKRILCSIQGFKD

FGFR1 = FGFR1 (Homo sapiens, UniProt P11362); details: 10 μM
Chain of FGFR1 (P11362 22-822): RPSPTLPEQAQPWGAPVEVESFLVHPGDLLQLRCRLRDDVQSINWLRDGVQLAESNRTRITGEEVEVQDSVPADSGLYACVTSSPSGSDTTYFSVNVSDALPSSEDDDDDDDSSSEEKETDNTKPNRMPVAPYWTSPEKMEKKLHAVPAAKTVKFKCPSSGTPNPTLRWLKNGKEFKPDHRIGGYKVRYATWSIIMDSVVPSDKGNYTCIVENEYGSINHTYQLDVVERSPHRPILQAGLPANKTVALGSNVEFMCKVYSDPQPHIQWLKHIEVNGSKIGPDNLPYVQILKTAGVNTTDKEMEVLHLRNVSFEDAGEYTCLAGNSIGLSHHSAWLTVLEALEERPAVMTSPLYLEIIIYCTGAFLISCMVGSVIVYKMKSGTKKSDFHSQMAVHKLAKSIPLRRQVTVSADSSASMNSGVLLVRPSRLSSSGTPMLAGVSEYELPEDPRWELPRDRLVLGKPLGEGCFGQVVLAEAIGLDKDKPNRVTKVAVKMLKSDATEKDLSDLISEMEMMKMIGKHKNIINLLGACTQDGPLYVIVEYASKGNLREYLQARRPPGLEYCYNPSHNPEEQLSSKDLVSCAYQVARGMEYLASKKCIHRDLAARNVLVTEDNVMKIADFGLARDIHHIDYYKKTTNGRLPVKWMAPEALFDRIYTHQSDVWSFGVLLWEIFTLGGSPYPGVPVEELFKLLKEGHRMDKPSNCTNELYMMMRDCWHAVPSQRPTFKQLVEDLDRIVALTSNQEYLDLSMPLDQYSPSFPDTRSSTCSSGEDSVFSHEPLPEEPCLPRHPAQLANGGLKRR

EPHA6 = molecular target: T3, EPHA6 (Homo sapiens, UniProt Q9UF33); details: 10 μM
T3 sequence (Q9UF33 23-1036): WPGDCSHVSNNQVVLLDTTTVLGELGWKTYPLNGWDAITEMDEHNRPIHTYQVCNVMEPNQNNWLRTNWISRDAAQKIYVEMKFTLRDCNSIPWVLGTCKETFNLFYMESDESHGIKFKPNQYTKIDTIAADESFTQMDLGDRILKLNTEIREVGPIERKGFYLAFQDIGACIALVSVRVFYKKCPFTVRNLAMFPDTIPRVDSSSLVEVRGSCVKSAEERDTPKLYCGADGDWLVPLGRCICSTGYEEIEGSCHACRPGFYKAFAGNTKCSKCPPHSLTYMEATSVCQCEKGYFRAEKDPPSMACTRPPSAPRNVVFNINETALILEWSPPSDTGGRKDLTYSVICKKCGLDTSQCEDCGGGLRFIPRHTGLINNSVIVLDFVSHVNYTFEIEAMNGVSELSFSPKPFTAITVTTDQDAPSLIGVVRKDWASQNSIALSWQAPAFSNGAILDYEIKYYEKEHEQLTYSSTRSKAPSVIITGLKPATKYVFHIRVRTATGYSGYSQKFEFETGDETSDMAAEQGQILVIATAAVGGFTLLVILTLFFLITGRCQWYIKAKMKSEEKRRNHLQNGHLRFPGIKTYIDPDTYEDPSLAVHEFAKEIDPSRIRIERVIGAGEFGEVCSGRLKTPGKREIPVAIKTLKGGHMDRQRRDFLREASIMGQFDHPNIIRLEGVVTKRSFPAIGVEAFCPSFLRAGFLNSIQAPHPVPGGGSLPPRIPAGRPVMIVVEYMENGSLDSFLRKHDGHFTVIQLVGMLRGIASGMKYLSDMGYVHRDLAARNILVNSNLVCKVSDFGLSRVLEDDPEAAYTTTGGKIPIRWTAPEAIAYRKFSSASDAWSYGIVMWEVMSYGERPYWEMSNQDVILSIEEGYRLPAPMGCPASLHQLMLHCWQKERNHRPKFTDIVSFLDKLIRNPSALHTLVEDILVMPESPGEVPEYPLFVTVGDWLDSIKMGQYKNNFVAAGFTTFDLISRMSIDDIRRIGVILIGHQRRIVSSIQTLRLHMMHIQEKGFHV

RET(M918T) = RET(M918T) (Homo sapiens, UniProt P07949, M918T); details: 10 μM
Chain of RET(M918T) (P07949 29-1114 M918T): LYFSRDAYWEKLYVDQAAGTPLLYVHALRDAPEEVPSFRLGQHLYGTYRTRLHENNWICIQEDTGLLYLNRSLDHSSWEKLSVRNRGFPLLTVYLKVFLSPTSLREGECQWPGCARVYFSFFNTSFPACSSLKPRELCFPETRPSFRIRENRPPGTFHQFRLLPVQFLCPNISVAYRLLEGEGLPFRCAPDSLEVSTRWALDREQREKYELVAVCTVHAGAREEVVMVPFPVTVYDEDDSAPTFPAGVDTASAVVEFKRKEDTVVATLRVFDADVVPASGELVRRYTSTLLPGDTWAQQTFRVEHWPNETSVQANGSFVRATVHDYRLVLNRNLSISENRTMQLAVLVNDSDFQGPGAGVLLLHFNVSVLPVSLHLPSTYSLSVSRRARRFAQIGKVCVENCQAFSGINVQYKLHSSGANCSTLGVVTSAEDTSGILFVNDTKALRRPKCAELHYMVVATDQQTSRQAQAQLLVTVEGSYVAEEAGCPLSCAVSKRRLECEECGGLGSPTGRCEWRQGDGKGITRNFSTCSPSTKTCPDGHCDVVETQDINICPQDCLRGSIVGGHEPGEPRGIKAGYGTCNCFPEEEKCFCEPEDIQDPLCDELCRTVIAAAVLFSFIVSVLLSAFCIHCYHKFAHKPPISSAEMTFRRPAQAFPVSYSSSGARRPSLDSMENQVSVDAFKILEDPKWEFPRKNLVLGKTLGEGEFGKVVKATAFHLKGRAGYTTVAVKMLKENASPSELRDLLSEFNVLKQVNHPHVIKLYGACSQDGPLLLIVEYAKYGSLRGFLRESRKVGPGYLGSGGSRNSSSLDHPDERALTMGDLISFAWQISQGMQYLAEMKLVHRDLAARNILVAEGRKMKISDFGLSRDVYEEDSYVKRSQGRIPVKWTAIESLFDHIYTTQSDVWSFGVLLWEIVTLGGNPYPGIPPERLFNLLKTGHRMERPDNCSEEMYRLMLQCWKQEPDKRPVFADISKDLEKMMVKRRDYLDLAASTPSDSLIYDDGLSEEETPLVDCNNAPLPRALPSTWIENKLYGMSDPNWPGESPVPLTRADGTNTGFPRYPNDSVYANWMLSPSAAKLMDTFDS

Row | Compound | Percent control (FLT3(K663D); FLT3(K663D), 10 μM) [%] | Percent control (EPHA1) [%] | Percent control (FGFR1) [%] | Percent control (EPHA6) [%] | Percent control (RET(M918T)) [%] | Percent control (FLT3(K663D))
1 | Cc1ccc(NC(=O)c2ccc(CN3CCN(C)CC3)cc2)cc1Nc1nccc(-c2cccnc2)n1 [Imatinib, reference compound] | 100 | 100 | 100 | 100 | 100 | –
2 | Cc1ccc(NC(=O)c2ccc(CN3CCN(C)CC3)cc2)cc1Nc1nccc(-c2cccnc2)[n+]1[Pt-2]1([Cl])[NH2+]C2CCCCC2[NH2+]1 (stereo not drawn) [1b, oxaliplatin-imatinib] | 84 | 86 | 96 | 90 | 88 | –
3 | COc1cc2c(Nc3ccc(Br)cc3F)[n+]([Pt-2]3([Cl])[NH2+]C4CCCCC4[NH2+]3)cnc2cc1OCC1CCN(C)CC1 (stereo not drawn) [3b, oxaliplatin-vandetanib] | – | 11 | – | 6.3 | – | 43
4 | C#Cc1cccc(Nc2c3cc(OCCOC)c(OCCOC)cc3nc[n+]2[Pt@SP2-2]([NH3+])([NH3+])[Cl])c1 [2a, cisplatin-erlotinib] | – | 73 | 77 | 71 | 61 | 67
